Target: T1, AP-2α (TFAP2A) (Homo sapiens, UniProt P05549)
T1 construct: endogenous full-length protein in intact HEP3B cells; western blot read-out
Test: cellular thermal shift assay (CETSA), western blot
Type: cell-based
Settings: HEP3B cells treated with LEI110 or DMSO for 1 h, then heated 3 min at increasing temperatures

T1 sequence (P05549 whole entry): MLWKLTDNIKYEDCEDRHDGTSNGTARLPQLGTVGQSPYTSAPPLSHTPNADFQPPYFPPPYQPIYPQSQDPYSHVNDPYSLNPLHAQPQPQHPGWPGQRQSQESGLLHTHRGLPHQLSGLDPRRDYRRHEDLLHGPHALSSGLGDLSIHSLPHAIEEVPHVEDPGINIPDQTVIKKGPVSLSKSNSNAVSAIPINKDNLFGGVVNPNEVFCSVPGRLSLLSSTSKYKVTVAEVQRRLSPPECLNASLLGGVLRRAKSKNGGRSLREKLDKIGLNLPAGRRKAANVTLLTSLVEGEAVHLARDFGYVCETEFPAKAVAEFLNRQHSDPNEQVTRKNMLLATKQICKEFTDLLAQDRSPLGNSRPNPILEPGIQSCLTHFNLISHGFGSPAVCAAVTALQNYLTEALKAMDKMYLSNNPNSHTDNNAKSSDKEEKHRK

With O=C(CCCc1ccccc1)C(=O)NCCc1ccc(Oc2ccc(C(F)(F)F)cn2)cc1 [LEI110] the “cellular thermal shift assay (CETSA), western blot” value was “the stabilization of AP-2α by LEI110 was observed in the CETSA”.
